# In ChEMBL document CHEMBL3407331, “Discovery of AM-7209, a potent and selective 4-amidobenzoic acid inhibitor of the MDM2-p53 interaction” (J Med Chem, 2014):
# Activity calls are given as the source filed them. The rule behind the calls is not given here.
# How the values were obtained:
# SJSA-1 [1] = experiment: cells; conditions: Homo sapiens, SJSA-1, 16 h
# Hepatocyte = experiment: cells; conditions: Homo sapiens
# [2] = target: T1, E3 ubiquitin-protein ligase Mdm2 (Homo sapiens, UniProt Q00987)
# T1 sequence (Q00987 whole entry): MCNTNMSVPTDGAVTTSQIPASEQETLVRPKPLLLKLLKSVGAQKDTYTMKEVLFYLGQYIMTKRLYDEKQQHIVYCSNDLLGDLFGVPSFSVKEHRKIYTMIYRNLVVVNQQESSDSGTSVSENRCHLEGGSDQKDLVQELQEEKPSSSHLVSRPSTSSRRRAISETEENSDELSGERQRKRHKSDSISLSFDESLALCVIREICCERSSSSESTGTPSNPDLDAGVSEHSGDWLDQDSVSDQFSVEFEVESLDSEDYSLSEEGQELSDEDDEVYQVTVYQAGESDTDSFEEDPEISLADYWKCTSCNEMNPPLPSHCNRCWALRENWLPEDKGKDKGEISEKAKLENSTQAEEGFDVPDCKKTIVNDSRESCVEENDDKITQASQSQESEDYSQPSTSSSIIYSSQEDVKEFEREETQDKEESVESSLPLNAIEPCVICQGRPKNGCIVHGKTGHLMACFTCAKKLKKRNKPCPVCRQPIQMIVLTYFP
# [3] = target: T1, E3 ubiquitin-protein ligase Mdm2; remark: listed apart in the source
# [4] = Drug metabolism in cynomolgus monkey hepatocytes treated with 4-(2-((3R,5R,6S)-1-((S)-2-(tert-Butylsulfonyl)-1-cyclopropylethyl)-6-(4-chloro-3-fluorophenyl)-5-(3-chlorophenyl)-3-methyl-2-oxopiperidin-3-yl)acetamido)-2-methoxybenzoic acid at 10 uM after 2 hrs by LC/MS analysis; assay type: ADME, cell-based, Macaca fascicularis, Hepatocyte
# [5] = Drug metabolism in rat hepatocytes treated with 4-(2-((3R,5R,6S)-1-((S)-2-(tert-Butylsulfonyl)-1-cyclopropylethyl)-6-(4-chloro-3-fluorophenyl)-5-(3-chlorophenyl)-3-methyl-2-oxopiperidin-3-yl)acetamido)-2-methoxybenzoic acid at 10 uM after 2 hrs by LC/MS analysis; assay type: ADME, cell-based, Hepatocyte
# [6] = Drug metabolism in dog hepatocytes treated with 4-(2-((3R,5R,6S)-1-((S)-2-(tert-Butylsulfonyl)-1-cyclopropylethyl)-6-(4-chloro-3-fluorophenyl)-5-(3-chlorophenyl)-3-methyl-2-oxopiperidin-3-yl)acetamido)-2-methoxybenzoic acid at 10 uM after 2 hrs by LC/MS analysis; assay type: ADME, cell-based, Canis lupus familiaris, Hepatocyte
# [7] = Drug metabolism in human hepatocytes treated with 4-(2-((3R,5R,6S)-1-((S)-2-(tert-Butylsulfonyl)-1-cyclopropylethyl)-6-(4-chloro-3-fluorophenyl)-5-(3-chlorophenyl)-3-methyl-2-oxopiperidin-3-yl)acetamido)-2-methoxybenzoic acid at 10 uM after 2 hrs by LC/MS analysis; assay type: ADME, cell-based, Hepatocyte
# [8] = Drug metabolism in rat hepatocytes treated with AMG 232 at 10 uM after 2 hrs by LC/MS analysis; assay type: ADME, cell-based, Hepatocyte
# [9] = Drug metabolism in human hepatocytes treated with AMG 232 at 10 uM after 2 hrs by LC/MS analysis; assay type: ADME, cell-based, Hepatocyte
# [10] = Drug metabolism in cynomolgus monkey hepatocytes treated with AMG 232 at 10 uM after 2 hrs by LC/MS analysis; assay type: ADME, cell-based, Macaca fascicularis, Hepatocyte
# [11] = Drug metabolism in dog hepatocytes treated with AMG 232 at 10 uM after 2 hrs by LC/MS analysis; assay type: ADME, cell-based, Canis lupus familiaris, Hepatocyte
# CYP3A4 [12] = target: T2, CYP3A4 (Homo sapiens, UniProt P08684); experiment: Time-dependent inhibition of CYP3A4 (unknown origin) assessed as remaining activity at 10 uM after 30 mins; assay type: ADME; conditions: read-out: Activity
# T2 sequence (P08684 whole entry): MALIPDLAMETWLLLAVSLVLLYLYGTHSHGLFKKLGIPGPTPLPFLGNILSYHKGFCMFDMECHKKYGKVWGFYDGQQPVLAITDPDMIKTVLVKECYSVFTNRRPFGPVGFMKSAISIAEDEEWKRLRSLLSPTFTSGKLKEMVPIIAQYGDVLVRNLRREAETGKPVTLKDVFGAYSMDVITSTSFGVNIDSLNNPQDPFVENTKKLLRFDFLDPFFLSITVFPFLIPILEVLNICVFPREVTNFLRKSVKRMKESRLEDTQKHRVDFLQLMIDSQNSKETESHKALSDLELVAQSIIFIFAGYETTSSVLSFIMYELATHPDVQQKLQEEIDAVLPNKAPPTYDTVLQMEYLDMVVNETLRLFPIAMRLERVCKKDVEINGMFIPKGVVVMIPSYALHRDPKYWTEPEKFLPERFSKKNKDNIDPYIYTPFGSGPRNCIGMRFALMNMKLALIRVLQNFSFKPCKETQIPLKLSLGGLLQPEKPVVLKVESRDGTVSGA
# CYP3A4 [13] = target: T2, CYP3A4; experiment: Inhibition of CYP3A4 (unknown origin) at 3 uM; assay type: ADME
# PXR (NR1I2) = target: T3, PXR (NR1I2) (Homo sapiens, UniProt O75469); experiment: Activation of human PXR at 2 uM relative to control; assay type: ADME; conditions: read-out: Activity
# T3 sequence (O75469 whole entry): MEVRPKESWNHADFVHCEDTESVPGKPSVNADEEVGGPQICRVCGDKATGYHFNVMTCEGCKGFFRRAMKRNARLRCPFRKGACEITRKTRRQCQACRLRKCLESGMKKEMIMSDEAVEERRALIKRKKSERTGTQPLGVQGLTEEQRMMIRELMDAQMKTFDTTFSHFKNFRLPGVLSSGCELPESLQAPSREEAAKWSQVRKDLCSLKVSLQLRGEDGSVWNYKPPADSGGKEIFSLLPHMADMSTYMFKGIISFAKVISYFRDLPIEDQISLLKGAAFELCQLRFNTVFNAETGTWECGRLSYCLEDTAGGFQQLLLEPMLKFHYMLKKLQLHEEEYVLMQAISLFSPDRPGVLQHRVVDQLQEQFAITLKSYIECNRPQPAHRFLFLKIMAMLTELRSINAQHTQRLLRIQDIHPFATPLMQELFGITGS
# [14] = Drug metabolism in dog hepatocytes assessed as demethylated metabolite M3 formation at 10 uM after 2 hrs by LC/MS analysis; assay type: ADME, cell-based, Canis lupus familiaris, Hepatocyte
# SJSA-1 [15] = experiment: Antitumor activity against human SJSA1 cells xenografted in athymic nude mouse assessed as complete tumor regression at 25 to 50 mg/kg, po qd for 4 days measured after 30 days; assay type: functional, organism-based
# [16] = Clearance in iv dosed mouse; assay type: ADME, organism-based; conditions: in vivo
# [17] = target: T1, E3 ubiquitin-protein ligase Mdm2; remark: listed apart in the source
# [18] = Oral bioavailability in mouse; assay type: ADME, organism-based; conditions: in vivo
# Mus musculus = experiment: Toxicity in human SJSA1 cells xenografted athymic nude mouse assessed as body weight loss at 10 to 50 mg/kg, po qd for 4 days; assay type: organism-based, SJSA-1; parameters: dose 10-50 mg/kg, route oral; conditions: in vivo, 96 h
# [19] = Antiproliferative activity p53 -deficient human HCT116 cells after 16 hrs by BrdU proliferation assay; assay type: functional, cell-based; conditions: HCT-116, 16 h
# [20] = Oral bioavailability in dog; assay type: ADME, organism-based, Canis lupus familiaris; conditions: in vivo
# [21] = Antitumor activity against human HCT116 cells xenografted in athymic nude mouse assessed as tumor growth inhibition at 100 mg/kg, po qd starting on day 10 of tumor implantation; assay type: functional; conditions: HCT-116, 240 h, read-out: TGI
# [22] = Drug metabolism in rat hepatocytes assessed as demethylated metabolite M3 formation at 10 uM after 2 hrs by LC/MS analysis; assay type: ADME, cell-based, Hepatocyte
# [23] = Drug metabolism in rat hepatocytes assessed as oxidative metabolite M2 formation at 10 uM after 2 hrs by LC/MS analysis; assay type: ADME, cell-based, Hepatocyte
# animal or person = conditions: Homo sapiens, HCT-116, po, 240 h
# [24] = Drug metabolism in dog hepatocytes assessed as oxidative metabolite M2 formation at 10 uM after 2 hrs by LC/MS analysis; assay type: ADME, cell-based, Canis lupus familiaris, Hepatocyte
# [25] = Antiproliferative activity against human HCT116 cells expressing p53 wild type after 16 hrs by BrdU proliferation assay; assay type: functional, cell-based; conditions: HCT-116, 16 h
# [26] = Drug metabolism in human hepatocytes assessed as demethylated metabolite M3 formation at 10 uM after 2 hrs by LC/MS analysis; assay type: ADME, cell-based, Hepatocyte
# [27] = Clearance in iv dosed dog; assay type: ADME, organism-based, Canis lupus familiaris; conditions: in vivo
# [28] = target: T1, E3 ubiquitin-protein ligase Mdm2; experiment: Binding affinity to human MDM2 by isothermal titration calorimetry
# [29] = Drug metabolism in human hepatocytes assessed as oxidative metabolite M2 formation at 10 uM after 2 hrs by LC/MS analysis; assay type: ADME, cell-based, Hepatocyte
# [30] = Drug metabolism in cynomolgus monkey hepatocytes assessed as demethylated metabolite M3 formation at 10 uM after 2 hrs by LC/MS analysis; assay type: ADME, cell-based, Macaca fascicularis, Hepatocyte
# [31] = Drug metabolism in cynomolgus monkey hepatocytes assessed as oxidative metabolite M2 formation at 10 uM after 2 hrs by LC/MS analysis; assay type: ADME, cell-based, Macaca fascicularis, Hepatocyte
structure (smiles),measurement,setting,value
CC(C)(C)S(=O)(=O)C[C@H](C1CC1)N1C(=O)[C@@](C)(CC(=O)N2CCC(C(=O)O)CC2)C[C@H](c2cccc(Cl)c2)[C@H]1c1ccc(Cl)cc1,IC50,SJSA-1 [1],11.7 nM
CC(C)(C)S(=O)(=O)C[C@H](C1CC1)N1C(=O)[C@@](C)(CC(=O)O)C[C@H](c2cccc(Cl)c2F)[C@H]1c1ccc(Cl)cc1,CLint,Hepatocyte,27 µL/min/10⁶ cells
same,IC50,[2],6.4 nM
same,IC50,[3],< 0.1 nM
same,IC50,SJSA-1 [1],0.8 nM
CC(C)(C)S(=O)(=O)C[C@H](C1CC1)N1C(=O)[C@@](C)(CC(=O)N2CC(C(=O)O)C2)C[C@H](c2cccc(Cl)c2)[C@H]1c1ccc(Cl)cc1,IC50,SJSA-1 [1],46 nM
CC(C)(C)S(=O)(=O)C[C@H](C1CC1)N1C(=O)[C@@](C)(CC(=O)N[C@H]2C[C@@H](C(=O)O)C2)C[C@H](c2cccc(Cl)c2)[C@H]1c1ccc(Cl)cc1,IC50,SJSA-1 [1],22 nM
CC1(C(=O)O)CCN(C(=O)C[C@@]2(C)C[C@H](c3cccc(Cl)c3)[C@@H](c3ccc(Cl)cc3)N([C@H](CS(=O)(=O)C(C)(C)C)C3CC3)C2=O)CC1,IC50,SJSA-1 [1],6.8 nM
CC(C)[C@@H](CS(=O)(=O)C(C)C)N1C(=O)[C@@](C)(CC(=O)OC2O[C@H](C(=O)O)[C@@H](O)[C@H](O)[C@H]2O)C[C@H](c2cccc(Cl)c2)[C@H]1c1ccc(Cl)cc1 (some centres not stated),Drug metabolism,[4],metabolite_detected
same,Drug metabolism,[5],metabolite_detected
same,Drug metabolism,[6],metabolite_detected
same,Drug metabolism,[7],metabolite_detected
same,Drug metabolism,[8],metabolite_detected
same,Drug metabolism,[9],metabolite_detected
same,Drug metabolism,[10],metabolite_detected
same,Drug metabolism,[11],metabolite_detected
CC(C)(C)S(=O)(=O)C[C@H](C1CC1)N1C(=O)[C@@](C)(CC(=O)Nc2cccc(C(=O)O)c2)C[C@H](c2cccc(Cl)c2)[C@H]1c1ccc(Cl)cc1,IC50,SJSA-1 [1],9.7 nM
CC(C)(C)S(=O)(=O)C[C@H](C1CC1)N1C(=O)[C@@](C)(CC(=O)Nc2ccc(C(=O)O)cn2)C[C@H](c2cccc(Cl)c2)[C@H]1c1ccc(Cl)cc1,IC50,SJSA-1 [1],9 nM
CC(C)(C)S(=O)(=O)C[C@H](C1CC1)N1C(=O)[C@@](C)(CC(=O)Nc2ccc(C(=O)O)cc2)C[C@H](c2cccc(Cl)c2)[C@H]1c1ccc(Cl)cc1,"activity at 0.5 h, 10 µM",CYP3A4 [12],78%
same,IC50,SJSA-1 [1],2.9 nM
same,inhibition at 3 µM,CYP3A4 [13],< 10%
same,activity at 2 µM,PXR (NR1I2),0%
CC(C)(C)S(=O)(=O)C[C@H](C1CC1)N1C(=O)[C@@](C)(CC(=O)N[C@H]2CC[C@@H](C(=O)O)CC2)C[C@H](c2cccc(Cl)c2)[C@H]1c1ccc(Cl)cc1,IC50,SJSA-1 [1],17 nM
CN(C(=O)C[C@@]1(C)C[C@H](c2cccc(Cl)c2)[C@@H](c2ccc(Cl)cc2)N([C@H](CS(=O)(=O)C(C)(C)C)C2CC2)C1=O)c1ccc(C(=O)O)cc1,IC50,SJSA-1 [1],198 nM
COc1cc(NC(=O)C[C@@]2(C)C[C@H](c3cccc(Cl)c3)[C@@H](c3ccc(Cl)c(F)c3)N([C@H](CS(=O)(=O)C(C)(C)C)C3CC3)C2=O)ccc1C(=O)O,Drug metabolism,[14],metabolite_detected
same,Activity,SJSA-1 [15],Active
same,clearance,[16],0.433 mL/min/kg
same,IC50,[17],0.6 nM
same,bioavailability,[18],30%
same,Activity,Mus musculus,<= 5%
same,IC50,[19],> 25000 nM
same,bioavailability,[20],45%
same,inhibition in vivo at 100 mg/kg,[21],100%
same,Drug metabolism,[22],metabolite_detected
same,Drug metabolism,[23],metabolite_detected
same,"activity at 0.5 h, 10 µM",CYP3A4 [12],63%
same,ED50,animal or person,10 mg/kg
same,Drug metabolism,[24],metabolite_detected
same,IC50,[25],2 nM
same,inhibition at 3 µM,CYP3A4 [13],< 10%
same,Drug metabolism,[26],metabolite_detected
same,clearance,[27],11.5 mL/min/kg
same,Kd,[28],0.038 nM
same,Drug metabolism,[29],metabolite_detected
same,activity at 2 µM,PXR (NR1I2),0%
same,Drug metabolism,[30],metabolite_detected
same,Drug metabolism,[31],metabolite_detected
